Assay results: patent US9212139B2, “Aryl substituted indoles and their use as blockers of sodium channels” (Purdue Pharma, L.P., priority 2010, dated 2015)
Like-named read-outs stand apart in the source and are kept apart here.

Tests used:
human Nav1.7 = human Nav1.7 (Homo sapiens (Human), UniProt Q15858); assay: FLIPR or FLIPR TETRA sodium dye assay with KCl and test article pre-incubation; assay type: cell-based
From the text: For dominant selection of the Nav1.7-expressing clones, the expression plasmid co-expressed the neomycin resistance gene. […] Recombinant beta and gamma subunits were not introduced into this cell line. Additional cell lines expressing recombinant Nav1.7 cloned from other species can also be used, alone or in combination with various beta subunits, gamma subunits or chaperones.
Cell maintenance: Unless otherwise noted, cell culture reagents were purchased from Mediatech of Herndon, Va. The recombinant Nav1.7/HEK293 cells were routinely cultured in growth medium consisting of Dulbecco's […] containing 10% fetal bovine serum (FBS, Hyclone, Thermo Fisher Scientific, Logan, Utah), 100 U/mL penicillin, […], 2-4 mM L-glutamine, and […]. For natural, non-recombinant cell lines, the selective antibiotic was omitted, and additional media formulations can be applied as needed.
The intensity of this emission, but not the wavelength range, is increased when the dye is exposed to Na^+ ions, which it can bind with partial selectivity. Cells expressing Nav1.7 or other sodium channels were loaded with the CoroNa™ Green dye immediately in advance of the fluorescence assay, and then, after agonist stimulation, the mobilization of Na^+ ions was detected as the Na^+ ions flowed from the extracellular fluid into the cytoplasm through the activated sodium channel pores. The dye was stored in the dark as a lyophilized powder, and then an aliquot was dissolved immediately before the cell loading procedure, according to the instructions of the manufacturer to a stock concentration of 10 mM in DMSO. It was then diluted in the assay buffer to a 4× concentrated working solution, so that the final concentration of dye in the cell loading buffer was 5 μM.
These scorpion toxins inhibit the fast inactivation of their cognate target channels. Stock solutions of the agonists were prepared to 40 mM in DMSO (veratridine) and 1 mg/mL in dH2O (scorpion venom), and then diluted to make a 4× or 2× stock (depending on the particular assay) in assay buffer, the final concentration being 100 μM (veratridine) and 10 μg/mL (scorpion venom). Both of the agonists were purchased from Sigma Aldrich, St. Louis, Mo.
Test Compounds: Test compounds were dissolved in DMSO to yield 10 mM stock solutions. […] If a particular test article appeared to be especially potent, then the concentration curve was adjusted, e.g., to 10-fold lower concentrations, in order to perform the dose-response in a more relevant concentration range. Compound dilutions were added during the dye-loading and pre-stimulation step, and then again during the fluorescence assay, early in the kinetic read.
Data Analysis: The data were analyzed according to methods known to those skilled in the art or using the GraphPad® Prism 4.0 Program (available from GraphPad Software, San Diego, Calif.) to determine the IC50 value for the test article. At least one standard reference compound was evaluated during each experiment.
FLIPR® or FLIPR^TETRA® sodium dye assay with KCl and test article pre-incubation: Cells were prepared by plating the recombinant HEK293 cells or other host cells expressing either recombinant or non-recombinant, native, Nav1.7 alpha subunit, alone or in combination with various beta and gamma subunits at a density of ˜40,000 cells/well into a 96-well black, clear-bottom, PDL-coated plate. The assay can be adapted to 384-well or 1,536-well format, if desired, using proportionately less cells and media. […] For counter-screens of other voltage-gated sodium channels, the procedure was very similar, though optimal densities of cells, media and subsequent assay components can be fine-tuned for the particular cell line or isoform.

hNav1.7 = hNav1.7 (Homo sapiens (Human), UniProt Q15858); assay: Electrophysiology (EP) assay, whole-cell patch clamp; assay type: cell-based; details: read-out: EP Nav1.7 Ki
Method: Cells: The hNav1.7 expressing HEK-293 cells were plated on 35 mm culture dishes pre-coated with poly-D-lysine in standard DMEM culture media (Mediatech, Inc., Herndon, Va.) and incubated in a 5% CO2 incubator at 37° C. Cultured cells were used approximately 12-48 hours after plating.
Electrophysiology: On the day of experimentation, the 35 mm dish was placed on the stage of an inverted microscope equipped with a perfusion system that continuously perfuses the culture dish with fresh recording media. A gravity driven superfusion system was used to apply test solutions directly to the cell under evaluation. This system consists of an array of glass pipette glass connected to a motorized horizontal translator. The outlet of the shooter was positioned approximately 100 μm from the cell of interest.
Gigaseals were formed and the whole-cell configuration was established in voltage clamp mode, and membrane currents generated by hNav1.7 were recorded in gap-free mode. […] Signals were sampled at 50 kHz and low pass filtered at 3 kHz.
The voltage clamp protocol to examine hNav1.7 currents was as follows. First, the standard current-voltage relationship was tested by pulsing the cell from the holding voltage (Vh) of −120 mV by a series of 5 msec long square-shaped test pulses incrementing in +10 mV steps over the membrane voltage range of −90 mV to +60 mV at the pace of stimulation of 0.5 Hz. This procedure determines the voltage that elicits the maximal current (Vmax). […] This procedure determines the voltage of full inactivation (Vfull). Third, the cell was repeatedly stimulated with the following protocol, first in the absence of the test compound then in its presence. The protocol consisted of depolarizing the cell from the holding potential of −120 mV to the Vfull value for 4.5 seconds then repolarizing the cell to the holding potential for 10 ms before applying the test pulse to the Vmax for 5 ms. The amount of inhibition produced by the test compound was determined by comparing the current amplitude elicited by the test pulse in the absence and presence of the compound.
Vehicle solution used to establish base line was also contacting 0.3% DMSO.
Data analysis: Data was analyzed off-line using Clampfit software (pClamp, v. 8; Axon Instruments) and graphed using GraphPad Prizm (v. 4.0) software.

[1] = sodium dye assay with KCl, recombinant human Nav1.7 in HEK293 cells, value ± SEM
[2] = whole-cell patch clamp, hNav1.7 expressing HEK-293 cells
[3] = read-out: FLIPR Nav1.7 IC50 (μM) ± SEM

Sequence of hNav1.7 (Q15858 other isoform, or with tags, fused parts or gaps): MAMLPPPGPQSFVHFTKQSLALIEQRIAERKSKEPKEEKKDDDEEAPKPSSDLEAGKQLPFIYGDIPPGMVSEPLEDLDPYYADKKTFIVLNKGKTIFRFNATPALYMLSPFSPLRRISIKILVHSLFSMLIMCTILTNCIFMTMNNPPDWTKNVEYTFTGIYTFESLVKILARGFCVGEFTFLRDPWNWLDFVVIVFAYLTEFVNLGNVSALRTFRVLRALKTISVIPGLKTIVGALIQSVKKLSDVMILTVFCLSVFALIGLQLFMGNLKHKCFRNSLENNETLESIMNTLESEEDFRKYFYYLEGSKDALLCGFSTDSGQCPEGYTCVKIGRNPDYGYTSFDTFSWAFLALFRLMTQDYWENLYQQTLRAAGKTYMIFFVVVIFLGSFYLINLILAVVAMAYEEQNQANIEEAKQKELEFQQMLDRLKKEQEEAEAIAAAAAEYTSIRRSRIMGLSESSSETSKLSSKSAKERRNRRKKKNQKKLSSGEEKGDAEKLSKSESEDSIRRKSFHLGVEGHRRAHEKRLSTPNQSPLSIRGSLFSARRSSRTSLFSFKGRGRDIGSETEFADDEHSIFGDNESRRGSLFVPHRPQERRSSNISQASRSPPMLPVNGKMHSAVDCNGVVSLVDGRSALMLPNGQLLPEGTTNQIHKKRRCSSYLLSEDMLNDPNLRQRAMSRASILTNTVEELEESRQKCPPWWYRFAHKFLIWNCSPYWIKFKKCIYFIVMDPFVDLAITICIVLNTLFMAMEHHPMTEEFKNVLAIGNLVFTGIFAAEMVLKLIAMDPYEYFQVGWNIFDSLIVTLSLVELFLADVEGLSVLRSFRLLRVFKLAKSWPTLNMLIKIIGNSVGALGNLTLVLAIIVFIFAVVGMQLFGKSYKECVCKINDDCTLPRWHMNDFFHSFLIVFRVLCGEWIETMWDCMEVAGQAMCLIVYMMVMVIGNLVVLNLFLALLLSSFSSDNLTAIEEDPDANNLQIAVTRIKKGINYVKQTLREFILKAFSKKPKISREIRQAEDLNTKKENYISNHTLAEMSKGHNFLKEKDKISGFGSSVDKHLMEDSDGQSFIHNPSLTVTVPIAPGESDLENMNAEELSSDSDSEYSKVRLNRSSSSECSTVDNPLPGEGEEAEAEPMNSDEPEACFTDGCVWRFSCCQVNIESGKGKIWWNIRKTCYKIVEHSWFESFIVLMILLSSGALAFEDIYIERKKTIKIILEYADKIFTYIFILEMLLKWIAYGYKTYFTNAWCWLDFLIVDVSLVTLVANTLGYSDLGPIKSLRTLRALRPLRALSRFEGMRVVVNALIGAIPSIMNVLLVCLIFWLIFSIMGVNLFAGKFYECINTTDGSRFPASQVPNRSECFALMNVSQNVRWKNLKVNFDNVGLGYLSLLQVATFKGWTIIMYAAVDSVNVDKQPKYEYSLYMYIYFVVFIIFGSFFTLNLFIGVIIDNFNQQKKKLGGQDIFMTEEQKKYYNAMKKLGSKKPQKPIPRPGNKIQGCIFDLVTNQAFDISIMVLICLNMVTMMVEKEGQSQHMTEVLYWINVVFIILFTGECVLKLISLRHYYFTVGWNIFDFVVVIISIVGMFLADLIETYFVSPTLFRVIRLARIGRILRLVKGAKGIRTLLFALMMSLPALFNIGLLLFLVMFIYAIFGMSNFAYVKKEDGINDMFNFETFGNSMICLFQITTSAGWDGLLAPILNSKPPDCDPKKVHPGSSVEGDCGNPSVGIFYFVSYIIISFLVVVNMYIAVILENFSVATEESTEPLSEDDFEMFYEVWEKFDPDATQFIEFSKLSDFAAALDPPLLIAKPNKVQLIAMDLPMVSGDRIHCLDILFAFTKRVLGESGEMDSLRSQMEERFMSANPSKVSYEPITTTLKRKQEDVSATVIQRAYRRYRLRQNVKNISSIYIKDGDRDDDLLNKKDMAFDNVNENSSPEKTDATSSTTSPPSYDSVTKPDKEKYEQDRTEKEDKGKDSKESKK
Sequence of human Nav1.7 (Q15858 other isoform, or with tags, fused parts or gaps): as above

Compound	IC50 (human Nav1.7; [1])	Ki (hNav1.7; [2])	IC50 (human Nav1.7; [3])	Ki (hNav1.7)
NC(=O)C(N)Cc1c[nH]c2ccc(-c3ccc(Oc4ccccc4)cc3)cc12 (stereo not shown) [Compound 8, 2-Amino-3-[5-(4-phenoxyphenyl)-1H-indol-3-yl]propionamide]	0.399 ± 0.024 µM	670 nM	–	–
NC(CO)Cc1c[nH]c2ccc(-c3ccc(Oc4ccccc4)cc3)cc12 (stereo not shown) [Compound 10, 2-Amino-3-[5-(4-phenoxyphenyl)-1H-indol-3-yl]propan-1-ol]	–	–	0.296 ± 0.087 µM	360 nM
NC(CO)Cc1c[nH]c2c(-c3ccc(Oc4ccccc4)cc3)cccc12 (stereo not shown) [Compound 22, 2-Amino-3-[7-(4-phenoxyphenyl)-1H-indol-3-yl]propan-1-ol]	–	–	0.151 ± 0.016 µM	830 nM
NC(CO)Cc1cn(-c2ccc(Oc3ccccc3)cc2)c2ccccc12 (stereo not shown) [Compound 34, 2-Amino-3-[1-(4-phenoxyphenyl)-1H-indol-3-yl]propan-1-ol]	0.389 ± 0.081 µM	260 nM	–	–
NC(=O)C(N)Cc1cn(-c2ccc(Oc3ccccc3)cc2)c2ccccc12 (stereo not shown) [Compound 35, 2-Amino-3-[1-(4-phenoxyphenyl)-1H-indol-3-yl]propionamide]	0.278 ± 0.061 µM	40 nM	–	–
N#Cc1cc(Oc2ccc(-n3cc(C[C@@H](N)CO)c4ccccc43)cc2)ccc1C(F)(F)F [Compound 44, (R)-5-{4-[3-(2-Amino-3-hydroxypropyl)-1H-indol-1-yl]phenoxy}-2-(trifluoromethyl)benzonitrile]	0.304 ± 0.046 µM	290 nM	–	–
CN(C)CCc1cn(-c2ccc(Oc3ccccc3)cc2)c2ccc(C[C@H](N)CO)cc12 [Compound 48, (S)-2-Amino-3-[3-(2-(dimethylamino)ethyl)-1-(4-phenoxyphenyl)-1H-indol-5-yl]propan-1-ol]	3.82 ± 1.02 µM	1310 nM	–	–
N#Cc1cc(Oc2ccc(-n3cc(C[C@H](O)CO)c4ccccc43)cc2)ccc1C(F)(F)F [Compound 54, (S)-5-{4-[3-(2,3-Dihydroxypropyl)-1H-indol-1-yl]phenoxy}-2-(trifluoromethyl)benzonitrile]	0.21 ± 0.035 µM	70 nM	–	–
COC(=O)c1ccc2c(C(O)C(N)=O)cn(-c3ccc(Oc4ccc(C(F)(F)F)c(C#N)c4)cc3)c2c1 (stereo not shown) [Compound 65, Methyl 3-(2-amino-1-hydroxy-2-oxoethyl)-1-(4-(3-cyano-4-(trifluoromethyl)phenoxy)phenyl)-1H-indole-6-carboxylate]	0.536 ± 0.129 µM	1910 nM	–	–
N#Cc1cc(Oc2ccc(-n3cc(C(O)C(=O)NC[C@H](O)CO)c4ccccc43)cc2)ccc1C(F)(F)F (stereo partly drawn) [Compound 69, 2-(1-(4-(3-Cyano-4-(trifluoromethyl)phenoxy)phenyl)-1H-indol-3-yl)-N—((S)-2,3-dihydroxypropyl)-2-hydroxyacetamide]	0.732 ± 0.113 µM	2670 nM	–	–
OC[C@@H](O)Cc1cn(C[C@H](O)CO)c2ccc(-c3ccc(Oc4ccc(F)cc4)cc3)cc12 [Compound 74, (2S,2′S)-3,3′-(5-(4-(4-Fluorophenoxy)phenyl)-1H-indole-1,3-diyl)bis(propane-1,2-diol)]	0.5 ± 0.091 µM	920 nM	–	–
NC(=O)c1cccc2c1c(C[C@H](O)CO)cn2-c1ccc(Oc2ccc(F)cc2)cc1 [Compound 122, (S)-3-(2,3-Dihydroxypropyl)-1-(4-(4-fluorophenoxy)phenyl)-1H-indole-4-carboxamide]	0.222 ± 0.036 µM	300 nM	–	–
NC(=O)c1nn(-c2ccc(Oc3ccc(C(F)(F)F)cn3)cc2)c2ccccc12 [Compound 155, 1-(4-((5-(Trifluoromethyl)pyridin-2-yl)oxy)phenyl)-1H-indazole-3-carboxamide]	–	–	0.362 ± 0.06 µM	250 nM
N#Cc1ccc(Oc2ccc(-n3cc(C[C@H](O)CO)c4ncccc43)cc2)cc1 [Compound 175, (S)-4-(4-(3-(2,3-Dihydroxypropyl)-1H-pyrrolo[3,2-b]pyridin-1-yl)phenoxy)benzonitrile]	0.549 ± 0.197 µM	170 nM	–	–
CCN(CC)CCn1cc(C(O)C(N)=O)c2cc(-c3ccc(Oc4ccc(F)cc4)cc3)ccc21 (stereo not shown) [Compound 179, 2-(1-(2-(Diethylamino)ethyl)-5-(4-(4-fluorophenoxy)phenyl)-1H-indol-3-yl)-2-hydroxyacetamide]	0.912 ± 0.079 µM	270 nM	–	–
N#Cc1ccc(Oc2ccc(-n3cc(C(O)C(N)=O)c4ccccc43)cc2)cc1C(F)(F)F (stereo not shown) [Compound 193, 2-(1-(4-(4-Cyano-3-(trifluoromethyl)phenoxy)phenyl)-1H-indol-3-yl)-2-hydroxyacetamide]	–	–	0.414 ± 0.026 µM	–
NC(=O)C(O)c1cn(-c2ccc(Oc3ccc(C(F)(F)F)cn3)cc2)c2ccccc12 (stereo not shown) [Compound 195, 2-Hydroxy-2-(1-(4-((5-(trifluoromethyl)pyridin-2-yl)oxy)phenyl)-1H-indol-3-yl)acetamide]	0.276 ± 0.011 µM	–	–	–
N[C@H](CO)Cc1cn(-c2ccc(Oc3ccc(C(F)(F)F)cn3)cc2)c2ccccc12 [Compound 196, (S)-2-Amino-3-(1-(4-((5-(trifluoromethyl)pyridin-2-yl)oxy)phenyl)-1H-indol-3-yl)propan-1-ol]	0.34 ± 0.023 µM	–	–	–
OCCn1cc(C[C@H](O)CO)c2cc(-c3ccc(Oc4ccc(F)cc4)cc3)ccc21 [Compound 200, (S)-3-(5-(4-(4-fluorophenoxy)phenyl)-1-(2-hydroxyethyl)-1H-indol-3-yl)propane-1,2-diol]	0.273 ± 0.061 µM	–	–	–
